Like-named read-outs stand apart in the source and are kept apart here.
Key:
[1] = cited from earlier work
[2] = target: T1, β-galactosidase (Escherichia coli) (Escherichia coli, UniProt P00722); assay: β-Galactosidase (E. coli) inhibition; format: biochemical
T1 construct: purchased
Experimental: (§1) For both families of enzymes used herein (glycosidases and cholinesterases), stock solutions of the inhibitors were prepared in DMSO; DMSO content was kept at 5% (V/V) for glycosidases and 1.25% (V/V) for cholinesterases. Enzymes were properly dissolved in water in a concentration in which the rate of the reaction when using [S] = 4 × KM is in the range 0.12–0.15 Abs/min. In both kinds of enzymes, an initial screening at 100 µM inhibitor concentration was performed, using the following substrate concentrations: [S] = 0.25 mM for α-glucosidase (Saccharomyces cerevisiae), 4.0 mM for β-glucosidase (almonds), 0.60 mM for α-galactosidase (green coffee beans), 0.51 mM for β-galactosidase (Escherichia coli), 1.5 mM for β-galactosidase (Aspergillus Oryzae), 0.12 mM for AChE (Electrophorus electricus), 0.11 mM for BuChE (equine serum). […] Each assay was run in duplicate.
(§2) Glycosidase assays were accomplished using the methodology reported by Bols and co-workers[30]. Each set of experiments is prepared in PS cuvettes using 0.1 M phosphate buffer (pH 6.8) and the corresponding o- or p-nitrophenyl glycopyranosides as substrates. Reactions were monitored at 25 °C by following the formation of the corresponding nitrophenolates at 400 nm (glucosidases and α-galactosidase) or 420 nm (β-galactosidases) over a time of 125 s.
(§3) Assessment of the inhibitory capacity against glycosidases was accomplished using the methodology reported by Bols and co-workers[30]. p-Nitrophenyl glycosides (o- for β-galactosidases) were used as model substrates, and the release of the corresponding p-nitrophenolates at pH 6.8 was monitored spectrophotometrically (λmax = 400 or 420 nm for p- or o-nitrophenolates, respectively).

[3] = target: AChE (Electrophorus electricus) (Electrophorus electricus, UniProt O42275); assay: AChE inhibition, Ellman's assay; format: biochemical; details: for IC50: Electrophorus electricus, pH 8.0, read-out: IC50 AChE
Sequence of AChE (Electrophorus electricus) (O42275 24-633): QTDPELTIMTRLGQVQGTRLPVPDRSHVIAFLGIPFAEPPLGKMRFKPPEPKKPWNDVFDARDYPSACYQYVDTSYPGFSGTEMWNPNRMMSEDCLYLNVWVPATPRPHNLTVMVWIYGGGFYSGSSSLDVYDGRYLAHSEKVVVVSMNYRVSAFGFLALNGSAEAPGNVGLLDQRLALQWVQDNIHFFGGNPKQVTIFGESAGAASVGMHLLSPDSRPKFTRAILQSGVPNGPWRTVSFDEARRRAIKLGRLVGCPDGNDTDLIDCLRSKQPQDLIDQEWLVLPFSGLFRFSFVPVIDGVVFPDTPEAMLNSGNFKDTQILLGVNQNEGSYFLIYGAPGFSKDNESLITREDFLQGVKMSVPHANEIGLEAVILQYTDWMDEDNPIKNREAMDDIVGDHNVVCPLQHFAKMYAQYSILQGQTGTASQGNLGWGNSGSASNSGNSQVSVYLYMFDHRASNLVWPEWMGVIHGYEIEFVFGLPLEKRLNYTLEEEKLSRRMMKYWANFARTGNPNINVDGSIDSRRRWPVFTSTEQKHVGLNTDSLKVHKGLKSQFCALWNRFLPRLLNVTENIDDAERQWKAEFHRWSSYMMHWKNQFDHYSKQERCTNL
Experimental: as §1
(§4) For cholinesterases, minor modifications on Ellman’s assay[31] were performed. The activity was measured in PS cuvettes containing […] (pH 8.0), 0.88 mM DTNB, and substrate (acetyl- and butyryl-thiocholine iodides for AChE and BuChE, respectively), The formation of the chromophore was monitored at 405 nm over a time of 125 s.
(§5) For strong inhibitors, the mode of inhibition was determined using the Cornish–Bowden method, which involves the use of two different plots: 1/v vs. [I] (Dixon plot) and [S]/v vs. [I]. For the calculation of kinetic parameters (KM, Vmax) a nonlinear regression analysis (least squares fit, GraphPad Prism 8.01) was used. Data are expressed as the mean ± SD.
(§6) Derivatives 11 and 12 were tested also against AChE (Electrophorus electricus) and BuChE (equine serum), as recognised models for human cholinesterases due to their close structural resemblance. For that purpose, Ellman’s colorimetric assay was used; this is an indirect test in which acetyl and butyryl thiocholine iodides are used as model substrates, which upon interaction with the enzyme release thiocholine, which in turn reacts with the chromogen reagent 5,5′-dithiobis(2-nitrobenzoic acid (DTNB) to give 2-nitro-5-mercaptobenzoate (at pH 8.0). The monitoring of the latter at 405 nm furnishes the kinetic parameters.

BuChE (equine serum) = target: T2, BuChE (equine serum) (Equus caballus, UniProt P81908); assay: BuChE inhibition, Ellman's assay; format: biochemical; details: for IC50: equine serum, pH 8.0, read-out: IC50 BuChE
T2 construct: 0.11 mM for BuChE (equine serum); from tissue; host or cells: equine serum
T2 sequence (P81908 whole entry): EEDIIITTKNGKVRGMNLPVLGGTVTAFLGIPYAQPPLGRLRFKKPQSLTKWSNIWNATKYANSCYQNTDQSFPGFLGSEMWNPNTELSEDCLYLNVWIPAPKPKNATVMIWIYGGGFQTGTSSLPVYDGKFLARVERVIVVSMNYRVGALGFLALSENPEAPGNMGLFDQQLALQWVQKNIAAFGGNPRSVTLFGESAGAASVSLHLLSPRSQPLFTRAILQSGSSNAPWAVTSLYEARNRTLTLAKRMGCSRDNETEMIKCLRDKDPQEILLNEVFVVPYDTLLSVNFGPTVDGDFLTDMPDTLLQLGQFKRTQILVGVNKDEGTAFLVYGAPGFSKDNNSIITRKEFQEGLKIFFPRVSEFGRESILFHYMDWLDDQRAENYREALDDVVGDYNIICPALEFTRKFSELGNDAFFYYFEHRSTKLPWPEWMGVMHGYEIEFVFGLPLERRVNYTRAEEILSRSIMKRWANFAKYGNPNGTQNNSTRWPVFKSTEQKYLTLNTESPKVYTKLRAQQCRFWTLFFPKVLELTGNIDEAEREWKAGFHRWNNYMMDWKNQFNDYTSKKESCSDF
Experimental: as §1, §4, §5, §6

[4] = target: T3, β-galactosidase (Aspergillus Oryzae) (Aspergillus oryzae, UniProt Q2UCU3); assay: β-Galactosidase (A. oryzae) inhibition; format: biochemical
T3 construct: purchased
T3 sequence (Q2UCU3 19-1005): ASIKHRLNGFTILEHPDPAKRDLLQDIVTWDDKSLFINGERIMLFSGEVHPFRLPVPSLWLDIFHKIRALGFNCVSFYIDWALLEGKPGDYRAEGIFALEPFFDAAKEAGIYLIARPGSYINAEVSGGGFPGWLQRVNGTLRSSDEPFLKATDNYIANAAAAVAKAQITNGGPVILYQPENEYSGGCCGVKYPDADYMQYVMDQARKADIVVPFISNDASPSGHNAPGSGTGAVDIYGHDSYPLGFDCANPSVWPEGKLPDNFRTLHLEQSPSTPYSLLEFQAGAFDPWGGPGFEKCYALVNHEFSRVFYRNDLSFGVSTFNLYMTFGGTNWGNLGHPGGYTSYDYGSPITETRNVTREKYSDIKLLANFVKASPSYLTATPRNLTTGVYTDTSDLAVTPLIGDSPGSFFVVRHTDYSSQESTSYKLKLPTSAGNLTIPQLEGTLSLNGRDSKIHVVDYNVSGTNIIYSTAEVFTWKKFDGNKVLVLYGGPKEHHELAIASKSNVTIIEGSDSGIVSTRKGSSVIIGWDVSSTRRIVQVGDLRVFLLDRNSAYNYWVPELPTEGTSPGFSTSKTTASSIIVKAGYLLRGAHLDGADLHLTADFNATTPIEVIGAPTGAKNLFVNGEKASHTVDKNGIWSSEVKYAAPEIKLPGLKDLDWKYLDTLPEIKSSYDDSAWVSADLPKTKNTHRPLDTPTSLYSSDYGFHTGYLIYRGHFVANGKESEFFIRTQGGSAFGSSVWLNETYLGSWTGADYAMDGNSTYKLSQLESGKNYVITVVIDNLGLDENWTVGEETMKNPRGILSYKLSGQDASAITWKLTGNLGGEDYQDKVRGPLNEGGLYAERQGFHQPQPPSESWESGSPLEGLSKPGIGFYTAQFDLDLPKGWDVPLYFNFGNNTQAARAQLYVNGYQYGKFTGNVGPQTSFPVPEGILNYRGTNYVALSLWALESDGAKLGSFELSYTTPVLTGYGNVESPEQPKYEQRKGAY
Experimental: as §1, §2, §3

β-glucosidase (almonds) = assay: β-Glucosidase inhibition (p-nitrophenyl glycoside substrate); format: biochemical; details: for Mode of inhibition β-Glucosidase: Cornish–Bowden method; for IC50: almond enzyme, pH 6.8, 25 °C; for Ki: binding to free enzyme, read-out: Kia β-Glucosidase
Experimental: as §1, §2, §5, §3

[5] = target: T4, α-glucosidase (Saccharomyces cerevisiae) (Saccharomyces cerevisiae, UniProt P53341); assay: α-Glucosidase inhibition (p-nitrophenyl glycoside substrate); format: biochemical
T4 construct: purchased
T4 sequence (P53341 whole entry): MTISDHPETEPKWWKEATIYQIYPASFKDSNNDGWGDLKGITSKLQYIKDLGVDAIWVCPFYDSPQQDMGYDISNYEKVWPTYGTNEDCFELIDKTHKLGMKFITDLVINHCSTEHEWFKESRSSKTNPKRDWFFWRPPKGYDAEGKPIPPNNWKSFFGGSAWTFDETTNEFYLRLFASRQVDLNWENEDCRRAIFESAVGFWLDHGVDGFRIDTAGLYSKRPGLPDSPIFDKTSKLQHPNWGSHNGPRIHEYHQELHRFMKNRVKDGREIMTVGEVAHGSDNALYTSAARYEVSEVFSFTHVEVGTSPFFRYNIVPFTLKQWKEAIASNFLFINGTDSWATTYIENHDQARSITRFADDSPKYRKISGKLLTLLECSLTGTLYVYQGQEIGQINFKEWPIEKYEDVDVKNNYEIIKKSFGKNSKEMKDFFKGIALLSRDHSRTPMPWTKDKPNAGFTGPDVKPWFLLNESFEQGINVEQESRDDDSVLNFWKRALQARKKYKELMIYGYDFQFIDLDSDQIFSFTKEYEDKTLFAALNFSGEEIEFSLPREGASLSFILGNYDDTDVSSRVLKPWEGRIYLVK
Experimental: as §1, §2
(Dixon plot) and [S]/v vs. [I]. For the calculation of kinetic parameters (KM, Vmax) a nonlinear regression analysis (least squares fit, GraphPad Prism 8.01) was used. Data are expressed as the mean ± SD.
as §3

[6] = target: T5, α-galactosidase (green coffee beans) (Coffea arabica, UniProt Q42656); assay: α-Galactosidase inhibition; format: biochemical
T5 construct: purchased; host or cells: green coffee beans
T5 sequence (Q42656 16-378): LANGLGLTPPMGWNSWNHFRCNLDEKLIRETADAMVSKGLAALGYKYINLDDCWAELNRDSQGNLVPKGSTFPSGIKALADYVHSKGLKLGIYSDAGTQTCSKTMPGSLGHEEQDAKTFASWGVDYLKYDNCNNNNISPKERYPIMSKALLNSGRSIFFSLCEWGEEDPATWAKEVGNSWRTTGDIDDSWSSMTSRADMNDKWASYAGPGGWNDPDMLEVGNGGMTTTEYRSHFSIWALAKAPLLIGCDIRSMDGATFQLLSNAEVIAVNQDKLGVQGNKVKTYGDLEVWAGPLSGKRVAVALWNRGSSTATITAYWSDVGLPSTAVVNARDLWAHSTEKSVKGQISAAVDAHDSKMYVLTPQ
Experimental: as §1, with “Enzymes” for “For both families of enzymes used herein (glycosidases and cholinesterases), stock solutions of the inhibitors were prepared in DMSO; DMSO content was kept at 5% (V/V) for glycosidases and 1.25% (V/V) for cholinesterases. Enzymes”
Glycosidase assays were accomplished using the methodology reported by Bols and co-workers[30]. Each set of experiments is prepared in PS cuvettes using 0.1 M phosphate buffer (pH 6.8) and the corresponding o- or p-nitrophenyl glycopyranosides as substrates.
as §3

[7] = test system: BJ-hTERT human fibroblasts; assay: Antiproliferative SRB assay, BJ-hTERT; format: cell-based; details: Fibroblast, 48 h, non-tumour fibroblasts
Experimental: We selected the human neuroblastoma cell line SH-SY5Y and the fibroblast cell line BJ-hTERT to evaluate the antiproliferative activity of the compounds. The tests were performed in 96-well plates using the SRB assay[32] with the following specifications. Cell seeding densities were 5000 cells/well for SH-SY5Y and 7000 cells/well for BJ-hTERT. Drug incubation times were 48 h. The optical density of each well was measured at 530 (primary) and 620 (secondary) nm.
To analyse the potential cytotoxicity of title compounds, their antiproliferative activity was measured.

T1 sequence (P00722 2-1024 limits assumed): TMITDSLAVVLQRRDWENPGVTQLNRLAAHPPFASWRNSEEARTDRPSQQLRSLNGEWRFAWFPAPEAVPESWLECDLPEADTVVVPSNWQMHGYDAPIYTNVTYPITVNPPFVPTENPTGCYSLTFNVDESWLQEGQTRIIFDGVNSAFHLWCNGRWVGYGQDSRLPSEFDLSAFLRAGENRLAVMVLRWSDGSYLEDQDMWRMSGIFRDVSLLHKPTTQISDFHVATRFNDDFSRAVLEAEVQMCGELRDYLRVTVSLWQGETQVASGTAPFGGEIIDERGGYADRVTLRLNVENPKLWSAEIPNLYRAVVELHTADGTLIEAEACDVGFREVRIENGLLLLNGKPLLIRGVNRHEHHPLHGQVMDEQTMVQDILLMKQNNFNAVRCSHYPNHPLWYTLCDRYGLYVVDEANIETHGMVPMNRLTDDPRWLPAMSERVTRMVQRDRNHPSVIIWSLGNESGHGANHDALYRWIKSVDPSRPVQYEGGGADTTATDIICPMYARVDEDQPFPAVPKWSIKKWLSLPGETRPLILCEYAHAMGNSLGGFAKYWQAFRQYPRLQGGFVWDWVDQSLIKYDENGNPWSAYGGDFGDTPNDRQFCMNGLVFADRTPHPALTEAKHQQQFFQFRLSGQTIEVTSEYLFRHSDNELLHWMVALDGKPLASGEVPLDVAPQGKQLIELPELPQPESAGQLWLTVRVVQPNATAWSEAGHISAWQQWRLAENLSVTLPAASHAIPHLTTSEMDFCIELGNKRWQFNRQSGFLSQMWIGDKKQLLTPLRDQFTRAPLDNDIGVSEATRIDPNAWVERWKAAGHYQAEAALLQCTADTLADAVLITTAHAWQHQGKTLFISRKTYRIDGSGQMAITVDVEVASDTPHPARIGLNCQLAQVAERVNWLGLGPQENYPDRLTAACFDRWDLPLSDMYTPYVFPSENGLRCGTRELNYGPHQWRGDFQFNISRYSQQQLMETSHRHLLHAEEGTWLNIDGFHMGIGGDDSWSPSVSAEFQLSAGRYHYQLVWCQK

Row | Compound | pKa [1] | IC50 [2] [µM] | IC50 [3] [µM] | IC50 (BuChE (equine serum)) [µM] | IC50 [4] [µM] | Mode of inhibition β-Glucosidase (β-glucosidase (almonds)) | IC50 (β-glucosidase (almonds)) [µM] | Ki (β-glucosidase (almonds)) [µM] | IC50 [5] [µM] | IC50 [6] [µM] | Ki [5] [µM] | Mode of inhibition α-Glucosidase ([5]; Cornish–Bowden method) | Mode of inhibition AChE ([3]; Cornish–Bowden method) | Ki ([3]; binding to enzyme-substrate complex, read-out: Kib AChE) [µM] | Ki ([3]; binding to free enzyme, read-out: Kia AChE) [µM] | Mode of inhibition BuChE (BuChE (equine serum); Cornish–Bowden method) | Ki (BuChE (equine serum); binding to enzyme-substrate complex, read-out: Kib BuChE) [µM] | Ki (BuChE (equine serum); binding to free enzyme, read-out: Kia BuChE) [µM] | GI50 [7] [µM]
1 | CCCCN1C[C@H](O)[C@@H](O)[C@H](O)[C@H]1CO [N-butyl-DNJ, N-butyl-1-deoxynojirimycin] | 7.1 | – | – | – | – | – | – | – | – | – | – | – | – | – | – | – | – | – | –
2 | OC[C@@H]1[C@@H](O)[C@H](O)[C@@H](O)CN1CCCCCCOCCc1ccc(O)cc1 [Compound 11b] | – | > 100 | > 100 | > 100 | > 100 | Competitive | 12 | 17 | > 100 | > 100 | – | – | – | – | – | – | – | – | –
3 | CCCCCCCCCN1C[C@H](O)[C@@H](O)[C@H](O)[C@H]1CO [N-nonyl-DNJ] | 6.7 | – | – | – | – | – | – | – | – | – | – | – | – | – | – | – | – | – | –
4 | OC[C@@H]1[C@@H](O)[C@H](O)[C@@H](O)CN1CCCCCCOCCc1ccccc1 [Compound 11a] | – | > 100 | > 100 | > 100 | > 100 | Competitive | 4.6 | 6.5 | 126 | > 100 | 93 | Competitive | – | – | – | – | – | – | –
5 | COc1ccc(CCOCCCCCCN2C[C@H](O)[C@@H](O)[C@H](O)[C@H]2CO)cc1OC [Compound 11e] | – | > 100 | 5.8 | 1.9 | > 100 | Competitive | 14 | 15 | > 100 | > 100 | – | – | mixed inhibitor | 5.2 | 9.3 | mixed inhibition | 4.5 | 1.4 | –
6 | COc1ccc(CCOCCCCCN2C[C@H](O)[C@@H](O)[C@H](O)[C@H]2CO)cc1 [Compound 12c] | – | > 100 | > 100 | > 100 | > 100 | Competitive | 25 | 14 ± 6 | > 100 | > 100 | – | – | – | – | – | – | – | – | –
7 | OC[C@@H]1[C@@H](O)[C@H](O)[C@@H](O)CN1CCCCCCOCCc1ccc(O)c(O)c1 [Compound 11d] | – | > 100 | > 100 | 76 | > 100 | Competitive | 15 | 11 | > 100 | > 100 | – | – | – | – | – | – | – | – | 39 ± 5

From article PMC7717699, “Tuning the activity of iminosugars: novel N-alkylated deoxynojirimycin derivatives as strong BuChE inhibitors” (Journal of Enzyme Inhibition and Medicinal Chemistry, 2020)
